Test results from patent US4122181A, “Analgesic (3-micotinamido-N(quinolyl) anthranilates and method of use” (Pierre Fabre S.A., priority 1975, dated 1978).
Values after ≈ are worked out from the molar mass of the structure shown. Read-outs that look alike come from different tables or passages of the source.

Key:
rats = type: in vivo, rat
Procedure: The ulceration index was determined in rats subjected to constraint for 7 hours.
The vehicle is a 4% aqueous solution of Tween 80 (TM - surface active agent).
The ulcerogenic index is calculated in accordance with the criteria established by […] et al. (Arch. Int. Pharmacodyn; 1971, 190, 6-13).

phenyl benzoquinone = test: Analgesic activity by the technique of SIEGMUND et al. (phenyl benzoquinone); type: in vivo; details: read-out: ED50, analgesic activity
Procedure: The compounds are administered orally 30 minutes before the injection of the phenyl benzoquinone solution.

mice [1] = test: Potentialization of anesthesia induced by chloral hydrate in mice; type: in vivo, mouse; details: 350 mg/kg chloral hydrate i.p., compound 100 mg/kg orally 30 minutes in advance
mice [2] = test: Falling of mice placed on a turning horizontal bar (central properties); type: in vivo, mouse; details: bar of 4 cm diameter turning at 8 rpm
rabbit tooth = test: Analgesic activity: electrical stimulation of rabbit tooth (CHEYMOL); type: in vivo; details: for time of maximum activity after administration: 100 mg/kg, administered orally; for analgesic activity compared with the control product (glaphenine): electrical stimulation of rabbit tooth
Text: (b) Electrical stimulation of rabbit tooth in accordance with CHEYMOL - Therapie 1959, XIV, p. 350 to 360.

[3] = Acute toxicity (LD50, method of MILLER and TAINTER) in the conventional mouse; details: in vivo, mouse about 20 g
Procedure: The toxicology study was carried out on the conventional mouse weighing about 20 g.
The substances were administered orally and intraperitoneally. The LD50 is calculated by the method of MILLER and TAINTER (Proc. Soc. Exper. Biol. Med. 1944, 57, 261).

[4] = Solubility characteristics
[5] = rats, oral, dose 100 (unit not given), N = 10, constraint for 7 hours
[6] = oral, 30 minutes before injection of phenyl benzoquinone solution
[7] = ip, intraperitoneal, read-out: LD50, intraperitoneally

Compound	Ulceration index (rats; [5])	ED50 (phenyl benzoquinone; [6]) [mg/kg]	time of maximum activity after administration (rabbit tooth)	analgesic activity compared with the control product (glaphenine) (rabbit tooth)	LD50 [3, 7] [mg/kg]	LD50 ([3]; oral, read-out: LD50, orally) [mg/kg]	further results
CC(=O)Oc1ccccc1C(=O)O [Aspirin, reference compound]	–	–	–	–	–	–	Ulceration index (rats; rat, in vivo, po): 13.1; ED50 (phenyl benzoquinone; po): 100 mg/kg
O=C(NCCOC(=O)c1ccccc1Nc1ccnc2cc(Cl)ccc12)c1cccnc1 [F 1531, β-nicotinamido-ethyl-N(7-chloro 4-quinolyl)-anthranilate]	5.3	28	about 60 minutes	better activity than the control product (glaphenine)	> 500	2800 ± 500	effect on anesthesia induced by chloral hydrate (mice [1]): neither potentialization nor decrease in the anesthesia; doses resulting in the falling of mice from turning horizontal bar (mice [2]): identical with the lethal doses; solubility ([4]; 1 n hcl): 200 mg/mL (≈ 448 mM)
O=C(NCCOC(=O)c1ccccc1Nc1ccnc2cc(C(F)(F)F)ccc12)c1cccnc1 [F 1636, β-nicotinamido-ethyl-N(7-trifluoromethyl-4-quinolyl)-anthranilate]	4.2	15	about 60 minutes	better activity than the control product (glaphenine)	> 1000	3200 ± 500	solubility in dimethyl formamide ([4]; dimethyl formamide): 8%
O=C(OCC(O)CO)c1ccccc1Nc1ccnc2cc(Cl)ccc12 (stereo not shown) [Glaphenine, reference compound]	8.8	36	–	–	~500	1500 ± 500	–
Nc1ccccc1C(=O)OCCNC(=O)c1cccnc1 [β-nicotinamido-ethyl anthranilate]	–	–	–	–	–	–	solubility in alcohol ([4]; alcohol): 2.5%; solubility in dimethyl acetamide ([4]; dimethyl acetamide): 100%; solubility in water ([4]; water): insoluble
